Columns and labels:
[1] = Human pharmacokinetics of circulating 9-cis-retinol in blood from completed clinical trials after oral 9-cis-retinyl acetate; type: in vivo
Experimental: FIG. 2 plots human pharmacokinetic (PK) data for the circulating levels of 9-cis-retinol in the blood from completed clinical trials where 9-cis-retinyl acetate was administered orally.
9-cis-retinyl acetate is the acetate ester of 9-cis-retinol. Acetate esters like 9-cis-retinyl acetate are generally short-lived because they are readily hydrolyzed either at physiological pH or by esterases in the blood and other parts of the body.
Thus, further discussion focuses on 9-cis-retinol.
Collated in FIG. 2 are human PK data that show a Cmax between 4 and 7 hours for 9-cis-retinol independent of initial dose administered. A low steady level of 9-cis-retinol is achieved in ˜24 hours. […] The circulating 9-cis-retinol is observed at similar levels from about 24 hours through at least 700 hours after a single dose.
(§1) Clearance from the blood is rapid above ˜8 nM, but quickly drops to zero or near zero below that level. Steady state levels (from ˜24 hrs post dose) are 4.57 nM (10 mg/m^2 dose, 83 samples), 8.32 nM (40 mg/m^2 dose, 149 samples), and 7.46 nM (5 to 60 mg/m^2, 629 samples).

[2] = Population PK model (2 compartment, concentration-dependent clearance) for 9-cis-retinol built on the observed clinical data; conditions: human blood, FIG. 4
Text: FIG. 3 schematically illustrates a 2 compartment PK model used to describe the observed clinical data.
From the observed PK data analyzed, a population PK model for levels of 9-cis-retinol was built. Based on the observed clinical data, a 2 compartment PK model was constructed (FIG. 3). This kinetic model for 9-cis-retinol includes a recirculation feature that maintains 9-cis-retinol levels for long periods of time. Two features of this model include apparent concentration-dependent clearance of 9-cis-retinol from the blood, and apparent zero or close to zero clearance at low concentrations. This accounts for long recirculating levels of 9-cis-retinol, seen in samples consistently at 100 hours, 300 hours and 700 hours post last dose administered.
as §1

SMILES | Steady state levels (from ~24 hrs post dose) ([1]; 10 mg/m^2 dose, 83 samples) [nM] | Steady state levels (from ~24 hrs post dose) ([1]; 40 mg/m^2 dose, 149 samples) [nM] | Steady state levels (from ~24 hrs post dose) ([1]; 5 to 60 mg/m^2, 629 samples) [nM] | Time through which circulating 9-cis-retinol is observed at similar levels ([1]; human, in vivo) | Cmax (time of) for 9-cis-retinol ([1]; human, in vivo, po) [h] | Time at which a low steady level of 9-cis-retinol is achieved ([1]; human, in vivo, po) | Concentration above which clearance from the blood is rapid (drops to zero or near zero below) [2] [nM] | Persistence of 9-cis-retinyl acetate in human blood samples following oral dosing ([1]; human, in vivo, po)
CC1=C(/C=C/C(C)=C\C=C\C(C)=C\CO)C(C)(C)CCC1 [9-cis-retinol] | 4.57 | 8.32 | 7.46 | at least 700 hours | 4 to 7 | about 24 hours | ~8 | 
CC(=O)OC/C=C(C)/C=C/C=C(C)\C=C\C1=C(C)CCCC1(C)C [9-cis-retinyl acetate, (2E,4E,6Z,8E)-3,7-dimethyl-9-(2,6,6-trimethylcyclohex-1-en-1-yl)nona-2,4,6,8-tetraen-1-yl acetate] |  |  |  |  |  |  |  | extremely short lived and rapidly hydrolyzed to 9-cis-retinol

— patent US20230321024A1, “METHODS OF TREATING VISUAL DISORDERS USING DAILY LOW DOSING OF A RETINOID COMPOUND” (ELUMINEX BIOSCIENCES (SUZHOU) LIMITED, priority 2020, published 2023)
